# In US9303165B2, “Bacteriochlorin imides” (North Carolina State University, priority 2011, dated 2016):
# Read-outs that look alike come from different tables or passages of the source.
# Assays:
# [1] = Static fluorescence spectra and fluorescence quantum yield; assay type: physicochemical; conditions: for λQy em: Qy(0,0) emission band, in toluene at room temperature; for Φf fluorescence quantum yield: toluene, room temperature, argon-purged, error ± 7%
# Experimental: (§1) Static absorption and fluorescence measurements were performed as described previously.^69,70 Argon-purged solutions of the samples in toluene with an absorbance of ≦0.10 at the excitation wavelength were used for the fluorescence spectral, quantum yield, and lifetime measurements. Fluorescence lifetimes were obtained using a phase modulation technique and Soret-band excitation^70 or via decay measurements using Soret-region excitation pulses obtained from a nitrogen-pumped dye laser and time-correlated-single-photon-counting detection. Emission measurements employed 2-4 nm excitation- and detection-monochromator bandwidths and 0.2 nm data intervals. Emission spectra were corrected for detection-system spectral response.
# [2] = Static absorption spectra (Qy(0,0) band); assay type: physicochemical; conditions: for λQy abs: Qy(0,0) absorption band, in toluene at room temperature; for λQy/IB: ratio of the peak intensities of the Qy(0,0) and B bands, toluene, room temperature
# Experimental: as §1
# [3] = Singlet excited-state lifetime by fluorescence techniques; assay type: physicochemical; conditions: toluene, room temperature; error ± 7%
# Experimental: as §1
# [4] = cited from earlier work
# [5] = cited from earlier work; remark: listed apart in the source
# [6] = organic solvents; cited from earlier work
Compound,λQy em [1] [nm],Φf fluorescence quantum yield [1],λQy abs [2] [nm],λQy/IB [2],τs lifetime of the lowest singlet excited state [3] [ns],also measured
"CCOC(=O)c1c(CC)c2cc3nc(c(OC)c4[nH]c(cc5nc(cc1[nH]2)CC5)c(CC)c4C(=O)OCC)CC3 [MeOBC-EtEs, 2,12-diethyl-3,13-diethoxycarbonyl-5-methoxybacteriochlorin]",749,0.17,739,1.1,4.3,"Stokes shift (fluorescence Qy(0,0) to longer wavelength than absorption Qy(0,0)) ([1]; in toluene): ~15 nm"
CC(=O)c1cc2cc3nc(cc4[nH]c(cc5nc(cc1[nH]2)CC5(C)C)cc4C(C)=O)CC3(C)C [HBC-A],771,0.11,768,1.2,2.9,
"CCOC(=O)c1c(CC)c2cc3nc(c4c5[nH]c(cc6nc(cc1[nH]2)CC6(C)C)c(CC)c5C(=O)N(Cc1ccccc1)C4=O)CC3(C)C [HBC-I, 15^2-N-Benzyl-3-ethoxycarbonyl-2,12-diethyl-8,8,18,18-tetramethylbacteriochlorin-13,15-dicarboximide]",823,0.036,818,1.3,1.9,"Stokes shift (fluorescence Qy(0,0) to longer wavelength than absorption Qy(0,0)) ([1]; in toluene): ~5 nm"
"CCOC(=O)c1c(CC)c2cc3nc(c4c5[nH]c(cc6nc(c(OC)c1[nH]2)CC6(C)C)c(CC)c5C(=O)N(Cc1ccccc1)C4=O)CC3(C)C [MeOBC-I, 15^2-N-Benzyl-3-ethoxycarbonyl-2,12-diethyl-5-methoxy-8,8,18,18-tetramethyl-bacteriochlorin-13,15-dicarboximide]",798,0.052,793,1.0,2.2,"Stokes shift (fluorescence Qy(0,0) to longer wavelength than absorption Qy(0,0)) ([1]; in toluene): ~5 nm"
CC(=O)O[C@@H]1C[C@@H](O)[C@@H](C)OC1[C@]1(C)C(=O)c2cc3cc(C)c(cc4nc(cc5[nH]c(cc1n2)cc5C)C(=O)[C@@]4(C)C1O[C@H](C)[C@H](O)C[C@H]1OC(C)=O)[nH]3 (some centres unmarked) [tolyporphin A],,,,,,absorption wavelength [4]: 678 nm
"COc1c2nc(cc3cc(C(C)=O)c(cc4nc(cc5cc(C(C)=O)c1[nH]5)C(C)(C)C4)[nH]3)C(C)(C)C2 [MeOBC-A, 3,13-Diacetyl-5-methoxy-8,8,18,18-tetramethylbacteriochlorin]",747,0.14,740,0.96,3.8,
"COc1c2nc(cc3[nH]c4c(c5nc(cc6[nH]c1c(C(C)=O)c6C)C(C)(C)C5)CC(=O)c4c3C)C(C)(C)C2 [MeOBOP, 3-Acetyl-5-methoxy-2,8,8,12,18,18-hexamethylbacterio-13^1-oxophorbine]",739,0.19,733,0.93,4.6,"Stokes shift (fluorescence Qy(0,0) to longer wavelength than absorption Qy(0,0)) ([1]; in toluene): ~5 nm"
"COc1c2nc(cc3[nH]c(cc4nc(cc5[nH]c1c(C(C)=O)c5C)C(C)(C)C4)c(C(C)=O)c3C)C(C)(C)C2 [MeOBC-MeA, 3,13-Diacetyl-5-methoxy-2,8,8,12,18,18-hexamethylbacteriochlorin]",749,0.13,743,0.95,3.4,
C=Cc1c(C)c2cc3nc(c4c5[n-]c(cc6nc(cc1[n-]2)C(C)=C6CC)c(C)c5C(=O)[C@@H]4C(=O)OC)[C@@H](CCC(=O)OC/C=C(\C)CCC[C@H](C)CCC[C@H](C)CCCC(C)C)[C@@H]3C.[Mg+2] [chlorophyll a],,,,,,Φf of quantum yield standard ([1]; in toluene): same value as in benzene; Φf of quantum yield standard ([5]; in benzene): 0.325
COc1c2nc(cc3ccc(cc4nc(cc5ccc1[nH]5)C(C)(C)C4)[nH]3)C(C)(C)C2 [MeOBC],711,0.25,709,0.87,5.0,
C1=Cc2nc1c(-c1ccccc1)c1ccc([nH]1)c(-c1ccccc1)c1nc(c(-c3ccccc3)c3ccc([nH]3)c2-c2ccccc2)C=C1 [free base tetraphenylporphyrin],,,,,,Φf of quantum yield standard ([5]; free base): 0.090
CC[C@H]1c2cc3[nH]c4c(c5nc(cc6[nH]c(cc(n2)[C@@H]1C)c(C(C)=O)c6C)[C@@H](C)[C@@H]5CCC(=O)OC)CC(=O)c4c3C [methyl bacteriopyropheophorbide a],,,,,,"Qy(0,0) absorption ([4]; in CH2Cl2): 754 nm"
"CC(=O)c1c(C)c2cc3nc(cc4[nH]c(cc5nc(cc1[nH]2)CC5(C)C)c(C)c4C(C)=O)CC3(C)C [HBC-MeA, 3,13-Diacetyl-2,8,8,12,18,18-hexamethylbacteriochlorin]",,,766,,,
"CC[C@H]1c2cc3[nH]c4c(c3C)C(=O)[C@H](C(=O)OC)c4c3nc(cc4[nH]c(cc(n2)[C@@H]1C)c(C(C)=O)c4C)[C@@H](C)[C@@H]3CCC(=O)OC/C=C(\C)CCC[C@H](C)CCC[C@H](C)CCCC(C)C [BPh-a, Bacteriopheophytin a]",768,0.10,758,0.69,2.7,"average singlet excited-state lifetime [6]: 2.0-2.7 ns; Qy(0,0) absorption ([4]; hydrocarbon / organic solvents): 750-760 nm"
CC1(C)Cc2cc3ccc(cc4nc(cc5ccc(cc1n2)[nH]5)CC4(C)C)[nH]3 [HBC],716,0.17,713,0.85,4.0,
